Key:
obese Zucker fa/fa rats = test: Chronic feeding assay (body weight, food and water consumption); format: in vivo, rat; conditions: 10 mg/kg p.o. once a day, day 6 of treatment
Description: Evaluation of Compound's Efficacy on the Reduction of Body Weight and Food and Water Consumption in Obese Zucker fa/fa Rats
The purpose of this protocol is to determine the effect of chronic administration of an unknown compound on body weight and food and water consumption in obese Zucker fa/fa rats. Obese Zucker fa/fa rats are frequently used in the determination of compound efficacy in the reduction of body weight. This animal model has been successfully used in the identification and characterization of the efficacy profile of compounds that are or have been used in the management of body weight in obese humans (see, e.g., Al-Barazanji et al., Obes Res. 8:317-323, 2000; Assimacopoulos-Jeannet et al., Am. J. Physiol. 260(2 Pt 2):R278-283, 1991; Dryden et al., Horm. Metab. Res. 31:363-366, 1999; Edwards and Stevens, Pharmacol. Biochem. Behav. 47:865-872, 1994; Grinker et al., Pharmacol. Biochem. Behav. 12:265-275, 1980).
A typical study includes 60-80 male Zucker fa/fa (n=10/treatment group) with an average body weight of approximately 550 g. Rats are kept in standard animal rooms under controlled temperature and humidity and a 12/12 light dark cycle. Water and food are continuously available. Rats are single-housed in large rat shoeboxes containing grid floor. Animals are adapted to the grid floors and sham-dosed with study vehicle for at least four days before the recording of two-days baseline measurement of body weight and 24-hr food and water consumption. Rats are assigned to one of 6-8 treatment groups based upon their body weight on baseline. The groups are set up so that the mean and standard error of the mean of body weight were similar.
Animals are orally gavaged (2 mL/kg) daily before the dark phase of the LD/cycle for a pre-determined number of days (typically 6-14 days) with their assigned dose/compound. At this time, body weight, food and water consumption are measured. On the final day, animals are euthanized by CO2 inhalation, and the body weight is measured.

[1] = Measurement of brain exposure; format: in vivo; conditions: rat, brain homogenate, oral; 10 mg/kg p.o.; brains collected at 2 hours post-dosing; male obese Zucker fa/fa rats; read-out: brain homogenate exposure level
Method: Measurement of Brain Exposure
Male obese Zucker fa/fa rats were administered compounds, typically at 10 mg/kg p.o., and then brains were collected at 2 hours post-dosing for determination of brain concentration. Brains were weighed and homogenized with 4 mL 10 mM ammonium acetate buffer (pH 3), and the brain tissue homogenate samples were extracted via protein precipitation with acetonitrile. Samples were vortexed, centrifuged, and analyzed by liquid chromatography utilizing mass spectrometer selective detection (LC/MS/MS) using the heated nebulizer interface. Samples were quantitated using weighted (1/x^2) linear internal standard calibration curve. For example, when 1-(4-chlorophenyl)-2-(2-chlorophenyl)-N-(1-piperidinyl)-5-butyl-1H-imidazole-4-carboxamide was dosed at 10 mg/kg p.o., a brain homogenate exposure level of approximately 200 nM was determined; when 2-(2-chlorophenyl)-1-(4-chlorophenyl)-5-ethyl-N-[(1S,2S)-2-hydroxycyclohexyl]-1H-imidazole-4-carboxamide was dosed at 10 mg/kg p.o., a brain homogenate exposure level of approximately 200 nM was determined.

Cl.O=C(NNc1ccc(C(F)(F)F)cc1)c1cn(-c2ccc(Cl)cc2)c(-c2ccccc2Cl)n1 [2-(2-chlorophenyl)-1-(4-chlorophenyl)-N′-[4-(trifluoromethyl)phenyl]-1H-imidazole-4-carbohydrazide hydrochloride]
increase in body weight from baseline (obese Zucker fa/fa rats): approximately 1.8% | reduction in body weight gain as compared to the vehicle control group (obese Zucker fa/fa rats): approximately 60%

CCc1c(C(=O)N[C@H]2CCCC[C@@H]2O)nc(-c2ccccc2Cl)n1-c1ccc(Cl)cc1 [2-(2-chlorophenyl)-1-(4-chlorophenyl)-5-ethyl-N-[(1S,2S)-2-hydroxycyclohexyl]-1H-imidazole-4-carboxamide]
concentration at 2 h [1]: ~200 nM

Cc1c(C(=O)NC2CCCCC2)nc(-c2ccccc2Cl)n1-c1ccc([N+](=O)[O-])cc1 [Example 23, N-cyclohexyl-2-(2-chlorophenyl)-5-methyl-1-(4-nitrophenyl)-1H-imidazole-4-carboxamide]
melting point: 217 to 220 °C

O=C(N[C@H]1CCCC[C@@H]1O)c1cn(-c2ccc(Cl)cc2)c(-c2ccccc2Cl)n1 [2-(2-chlorophenyl)-1-(4-chlorophenyl)-N-[(1S,2S)-2-hydroxycyclohexyl]-1H-imidazole-4-carboxamide]
increase in body weight from baseline (obese Zucker fa/fa rats): approximately 2.4% | reduction in body weight gain as compared to the vehicle control group (obese Zucker fa/fa rats): approximately 50%

CCCCc1c(C(=O)NN2CCCCC2)nc(-c2ccccc2Cl)n1-c1ccc(Cl)cc1 [1-(4-chlorophenyl)-2-(2-chlorophenyl)-N-(1-piperidinyl)-5-butyl-1H-imidazole-4-carboxamide]
concentration at 2 h [1]: ~200 nM
